[I] = hypoxanthine (inosine)
Experiments:
TLR9 = target: T1, TLR9 (Homo sapiens, UniProt Q9NR96); assay: Human PDC stimulated with HSV-1 (TLR9 ligand), IFN-α; assay type: cell-based; conditions: TLR9L HSV
T1 construct: the primary human PDCs were thus stimulated with HSV-1 (4 MOI) or influenza (2 MOI); endogenous in cells; host or cells: primary human plasmacytoid dendritic cells from blood donors
T1 sequence (Q9NR96 26-1032): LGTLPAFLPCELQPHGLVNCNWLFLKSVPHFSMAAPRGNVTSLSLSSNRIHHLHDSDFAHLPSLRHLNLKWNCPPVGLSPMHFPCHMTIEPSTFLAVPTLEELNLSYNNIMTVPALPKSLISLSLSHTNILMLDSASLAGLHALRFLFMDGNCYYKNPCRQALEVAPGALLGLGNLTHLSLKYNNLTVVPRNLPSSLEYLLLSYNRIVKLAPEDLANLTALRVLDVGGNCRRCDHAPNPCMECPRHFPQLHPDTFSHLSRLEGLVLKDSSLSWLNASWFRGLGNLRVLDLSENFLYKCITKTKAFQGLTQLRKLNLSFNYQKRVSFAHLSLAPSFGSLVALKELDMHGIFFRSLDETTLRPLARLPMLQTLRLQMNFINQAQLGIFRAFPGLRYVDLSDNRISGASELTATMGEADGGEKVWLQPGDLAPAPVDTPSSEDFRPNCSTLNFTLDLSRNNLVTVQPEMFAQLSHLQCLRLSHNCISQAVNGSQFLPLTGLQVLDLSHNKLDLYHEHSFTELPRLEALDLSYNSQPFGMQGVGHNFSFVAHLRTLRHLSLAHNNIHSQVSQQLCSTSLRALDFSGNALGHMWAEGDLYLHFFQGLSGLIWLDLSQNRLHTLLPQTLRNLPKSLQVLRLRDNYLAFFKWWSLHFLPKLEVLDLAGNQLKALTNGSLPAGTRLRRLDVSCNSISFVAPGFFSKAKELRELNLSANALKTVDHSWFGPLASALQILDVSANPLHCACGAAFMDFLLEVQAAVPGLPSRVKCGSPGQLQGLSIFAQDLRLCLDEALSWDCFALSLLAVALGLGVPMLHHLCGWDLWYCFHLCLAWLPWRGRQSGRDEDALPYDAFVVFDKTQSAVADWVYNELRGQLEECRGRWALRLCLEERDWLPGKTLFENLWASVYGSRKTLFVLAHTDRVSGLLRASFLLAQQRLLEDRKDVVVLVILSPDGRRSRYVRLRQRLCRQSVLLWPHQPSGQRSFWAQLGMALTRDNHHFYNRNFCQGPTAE
From the text: Human PDCs infected with herpes simplex virus type 1 (HSV-1 KOS strain) respond by producing IFN-α and this response is dependent on TLR-9 signaling. Human PDCs infected with influenza virus (FLU H1N1 strain, A/PR/8/34 from a patient in Puerto Rico 1934; See ATCC catalog VR-95) also respond by producing IFN-α, however, this response is dependent on TLR-7 signaling and independent of TLR-9. The effect of IRPs on innate immune response cytokine production by infected cells was examined. In a dose-dependent manner, the primary human PDCs were thus stimulated with HSV-1 (4 MOI) or influenza (2 MOI), either alone or in the presence of the tested IRPs. At 24 hours, supernatants were collected and cytokine levels, IFN-alpha, were measured by immunoassay.
Human PDCs from 16-18 donors were purified and infected with influenza virus (strain PR/8) or HSV-1. HSV was used at 4 MOI, while the influenza virus was used at 2 MOI. The amount of IFN-α produced by the cells was measured and compared to the amount of virus used for infection.
To further investigate the effectiveness of IRPs on TLR7 and TLR9 activation, various IRPs or control samples were assayed for immunoregulatory activity on human PDCs as described in Example 8.

TLR7 and TLR9 = assay: Type I IFN-regulated genes in spleens of lupus-prone mice (Taqman); assay type: in vivo, mouse; conditions: (NZBxNZW)F1 and TLR7.Tg.6, IRS 100 μg s.c. every 3 days for 10 days
Experimental: (A) (NZBxNZW)F1 mice were treated as described in FIG. 16 but when mice received IRS, different doses of GC were used (in mg per mouse here) (B) (NZBxNZW)F1 and (C) TLR7.Tg.6 mice were left untreated or treated with IRS (100 μg/mice s.c) every 3 days for 10 days and spleens were harvested 18 hr after the last IRS injection. RNA was prepared from the spleens of the animals and the levels of type I IFN-regulated genes were measured by quantitative analysis (Taqman). Averages±standard error of the mean for n=6-10 mice per group.
PCR reactions were performed as described previously (Barrat et al., 2005). In brief, RNA was extracted from collagenase D-treated splenocyte suspensions with Qiagen RNA and cDNA was generated with SuperScript First-Strand Synthesis System (Invitrogen). ECT was threshold cycle (CT) values for each gene were normalized to the housekeeping genes ubiquitin or β-actin using the formula Eq. 1.8(HSKGENE) (100,000), where HSK is the mean CT of triplicate housekeeping gene runs, GENE is the mean CT of duplicate runs of the gene of interest, and 100,000 is arbitrarily chosen as a factor to bring all values above 0.

## 5′-TGC TCC TGG AGI GGT TGT-3′ (DNA TGCTCCTGGAGNGGTTGT; DNA, [I] at 12, backbone and methylation of C not given here) [SEQ ID NO:73]
TLR9
  IC50: 25 nM
  IC90: 99 nM

## 5′-TGCTCCTGGAGGGGTTGT-3′ (DNA, backbone not given here) [SEQ ID NO:42]
TLR7 and TLR9
  expression of IFN-regulated genes: reduced the expression of IFN-regulated genes but not TNF-α

From patent US8940310B2, “Methods of treatment using TLR7 and/or TLR9 inhibitors” (Dynavax Technologies Corporation, priority 2010, dated 2015)
